Data taken from patent US20250179047A1, “5-[7-(3,4-DIHYDRO-1H-ISOQUINOLINE-2-CARBONYL)-1,2,3,4 TETRAHYDROISOQUINOLIN-6-YL]-1H-PYRROLE-3-CARBOXAMIDE DERIVATIVES, PHARMACEUTICAL COMPOSITIONS CONTAINING THEM AND THEIR USES AS PRO-APOPTOTIC AGENTS” (LES LABORATOIRES SERVIER, priority 2022, published 2025).

Assays:
[1] = biological target: BCL2 WT (Homo sapiens (Human), UniProt P10415); assay: TR-FRET competitive binding assay, BCL2 WT; settings: Ki determined from IC50, read-out: TR_FRET EKI_Bcl2 WT
Outline: (§1)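 Competitive TR-FRET displacement of fluorescein-PUMA peptide (2 or 20 nM) from 0.5 nM terbium-labelled N-terminal Halo-fusion BCL2 (1-207, wild type or mutant) or BCLXL (2-196), expressed in E. coli. Buffer 50 mM Hepes pH 7.5, 150 mM NaCl, 5% DMSO; 2 h at 23°C. 520/495 nm ratio fitted over 11 points for IC50, converted to Ki.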

[2] = biological target: BCL2 G101V (Homo sapiens, UniProt P10415, G101V); assay: TR-FRET competitive binding assay, BCL2 G101V; settings: BCL2 G101V; Ki determined from IC50; read-out: TR_FRET EKI_Bcl2 G101V
Outline: as §1

[3] = tested on: BCL2 G101V; assay: TR-FRET competitive binding assay, BCL2 G101V; set-up: species or system human; settings: ratio Ki BCL2 G101V / Ki BCL2 WT
Outline: as §1

[4] = biological target: BCL2 D103Y (Homo sapiens, UniProt P10415, D103Y); assay: TR-FRET competitive binding assay, BCL2 D103Y; settings: Ki determined from IC50, read-out: TR_FRET EKI_Bcl2 D103Y
Outline: as §1

[5] = biological target: BCL2 F104I (Homo sapiens, UniProt P10415, F104I); assay: TR-FRET competitive binding assay, BCL2 F104I; settings: Ki determined from IC50, read-out: TR_FRET EKI_Bcl2 F104I
Outline: as §1

[6] = biological target: BCL2 D111A (Homo sapiens, UniProt P10415, D111A); assay: TR-FRET competitive binding assay, BCL2 D111A; settings: Ki determined from IC50, read-out: TR_FRET EKI_Bcl2 D111A
Outline: as §1

[7] = biological target: BCLXL WT (Homo sapiens (Human), UniProt Q07817); assay: TR-FRET competitive binding assay, BCLXL WT; settings: for Ki: BCLXL WT, Ki determined from IC50, read-out: TR_FRET EKI BclxL; for TR_FRET EKI BCLxL/WT selectivty ratio: ratio Ki BCLxL / Ki BCL2 WT
Sequence of BCLXL WT (Q07817 other isoform, or with tags, fused parts or gaps): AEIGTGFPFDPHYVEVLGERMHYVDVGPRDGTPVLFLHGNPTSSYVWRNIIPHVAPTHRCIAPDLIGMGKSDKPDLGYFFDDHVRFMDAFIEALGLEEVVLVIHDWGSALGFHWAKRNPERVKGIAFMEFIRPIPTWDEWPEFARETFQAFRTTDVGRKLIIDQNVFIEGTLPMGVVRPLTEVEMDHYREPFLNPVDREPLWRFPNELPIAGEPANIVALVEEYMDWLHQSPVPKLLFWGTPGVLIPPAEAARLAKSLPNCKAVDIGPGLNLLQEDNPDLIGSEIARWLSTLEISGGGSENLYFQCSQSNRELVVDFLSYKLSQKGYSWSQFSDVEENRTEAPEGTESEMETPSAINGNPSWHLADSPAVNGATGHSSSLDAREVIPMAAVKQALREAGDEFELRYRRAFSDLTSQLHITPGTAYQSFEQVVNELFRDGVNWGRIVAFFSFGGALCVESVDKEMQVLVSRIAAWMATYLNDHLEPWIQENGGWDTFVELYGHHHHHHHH
Outline: as §1

[8] = tested on: KMS-12-PE Bcl-2 WT; assay: In vitro cytotoxicity CellTiter-Glo 48 h, KMS-12-PE Bcl-2 WT; format: cell-based; settings: Homo sapiens, KMS-12-PE, C50 = concentration needed to reach 50% of the cellular viability
Outline: (§2)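 KMS-12-PE myeloma cells lentivirally transduced with Bcl-2 WT or G101V (TagRFP-sorted), exposed to compound 11-point dose-response for 48 h at 37 °C, 5% CO2. Viability read by CellTiter-Glo ATP luminescence; C50 is the concentration giving 50% cellular viability.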

[9] = tested on: KMS-12-PE Bcl-2 G101V; assay: In vitro cytotoxicity CellTiter-Glo 48 h, KMS-12-PE Bcl-2 G101V; format: cell-based; settings: for Ratio (G101V/WT): C50 KMS-12-PE Bcl-2 G101V over C50 KMS-12-PE Bcl-2 WT; for IC50: Homo sapiens, KMS-12-PE, 48 h, CellTiter-Glo, C50 = concentration needed to reach 50% of the cellular viability
Outline: as §2

| Structure (SMILES) | Ki [1] [nM] | Ki [2] [nM] | TR_FRET EKI G101V/WT selectivty ratio [3] | Ki [4] [nM] | Ki [5] [nM] | Ki [6] [nM] | Ki [7] [nM] | TR_FRET EKI BCLxL/WT selectivty ratio [7] | IC50 [8] [µM] | Ratio (G101V/WT) [9] | IC50 [9] [µM] |
| --- | --- | --- | --- | --- | --- | --- | --- | --- | --- | --- | --- |
| Cc1c(N(C(=O)c2cc(-c3cc4c(cc3C(=O)N3Cc5ccccc5C[C@H]3CN3CCCCC3)CN(C(=O)Cc3c(F)cc(OCCN5CCOCC5)cc3F)CC4)n(C)c2C)c2ccc(O)cc2)cc(C#N)n1C [Example 97, N-(5-cyano-1,2-dimethylpyrrol-3-yl)-5-[2-(2-{2,6-difluoro-4-[2-(morpholin-4-yl)ethoxy]phenyl}acetyl)-7-{[(3S)-3-(piperidin-1-ylmethyl)-3,4-dihydro-1H-isoquinolin-2-yl]carbonyl}-3,4-dihydro-1H-isoquinolin-6-yl]-N-(4-hydroxyphenyl)-1,2-dimethylpyrrole-3-carboxamide] | 0.05 | 0.2 | 4.3 | 0.18 | 0.16 | 0.14 | 1.9 | 41.3 | 0.0033 | 4.68 | 0.0158 |
| Cc1c(N(C(=O)c2cc(-c3cc4c(cc3C(=O)N3Cc5ccccc5C[C@H]3CN3CCCCC3)CN(C(=O)Cc3ccc(OCCN5C[C@@H](C)O[C@@H](C)C5)cc3)CC4)n(C)c2C)c2ccc(O)cc2)cc(C#N)n1C [Example 98, N-(5-cyano-1,2-dimethylpyrrol-3-yl)-5-{2-[2-(4-{2-[cis-2,6-dimethylmorpholin-4-yl]ethoxy}phenyl)acetyl]-7-{[(3S)-3-(piperidin-1-ylmethyl)-3,4-dihydro-1H-isoquinolin-2-yl]carbonyl}-3,4-dihydro-1H-isoquinolin-6-yl}-N-(4-hydroxyphenyl)-1,2-dimethylpyrrole-3-carboxamide] | 0.07 | 0.4 | 4.9 | 0.24 | 0.6 | 0.25 | 4.7 | 66.2 | 0.0087 | 4.6 | 0.0401 |
| Cc1c(N(C(=O)c2cc(-c3cc4c(cc3C(=O)N3Cc5ccccc5C[C@H]3CN3CCCCC3)CN(C(=O)Cc3ccc(OCCN(C)C5CC5)cc3)CC4)n(C)c2C)c2ccc(O)cc2)cc(C#N)n1C [Example 102, N-(5-cyano-1,2-dimethyl-1H-pyrrol-3-yl)-5-{2-[2-(4-{2-[cyclopropyl(methyl)amino]ethoxy}phenyl)acetyl]-7-[(3S)-3-[(piperidin-1-yl)methyl]-1,2,3,4-tetrahydroisoquinoline-2-carbonyl]-1,2,3,4-tetrahydroisoquinolin-6-yl}-N-(4-hydroxyphenyl)-1,2-dimethyl-1H-pyrrole-3-carboxamide] | 0.06 | 0.4 | 6.5 | 0.21 | 0.73 | 0.24 | 2.8 | 49.1 | 0.0075 | 6.03 | 0.0424 |
| COc1ncc(N(C(=O)c2cc(-c3cc4c(cc3C(=O)N3Cc5ccccc5C[C@H]3C)CN(C(=O)Cc3ccc(OCCN5CCOCC5)cc3F)CC4)n(C)c2C)c2ccc(O)cc2)cc1F [Example 111, 5-[2-(2-{2-fluoro-4-[2-(morpholin-4-yl)ethoxy]phenyl}acetyl)-7-{[(3R)-3-methyl-3,4-dihydro-1H-isoquinolin-2-yl]carbonyl}-3,4-dihydro-1H-isoquinolin-6-yl]-N-(5-fluoro-6-methoxypyridin-3-yl)-N-(4-hydroxyphenyl)-1,2-dimethylpyrrole-3-carboxamide] | 0.15 | 0.8 | 5.2 | 0.59 | 0.79 | 0.4 | 7.2 | 48.0 | 0.0048 | 8.18 | 0.0392 |

Second part, led by results:

| Ki [1] [nM] | Ki [2] [nM] | TR_FRET EKI G101V/WT selectivty ratio [3] | Ki [4] [nM] | Ki [5] [nM] | Ki [6] [nM] | Ki [7] [nM] | TR_FRET EKI BCLxL/WT selectivty ratio [7] | Structure (SMILES) | IC50 [8] [µM] | Ratio (G101V/WT) [9] | IC50 [9] [µM] |
| --- | --- | --- | --- | --- | --- | --- | --- | --- | --- | --- | --- |
| 0.13 | 0.5 | 3.9 | 0.42 | 0.37 | 0.23 | 1.6 | 12.3 | Cc1c(N(C(=O)c2cc(-c3cc4c(cc3C(=O)N3Cc5ccccc5C[C@H]3CN3CCC(F)CC3)CN(C(=O)Cc3ccc(OCCN5CCOCC5)cc3F)CC4)n(C)c2C)c2ccc(O)cc2)cc(C#N)n1C [Example 86, N-(5-cyano-1,2-dimethyl-1H-pyrrol-3-yl)-5-[2-(2-{2-fluoro-4-[2-(morpholin-4-yl)ethoxy]phenyl}acetyl)-7-[(3S)-3-[(4-fluoropiperidin-1-yl)methyl]-1,2,3,4-tetrahydroisoquinoline-2-carbonyl]-1,2,3,4-tetrahydroisoquinolin-6-yl]-N-(4-hydroxyphenyl)-1,2-dimethyl-1H-pyrrole-3-carboxamide] | 0.0048 | 5.21 | 0.0249 |
| 0.07 | 0.3 | 4.3 | 0.18 | 0.43 | 0.26 | 1.9 | 29.2 | Cc1c(N(C(=O)c2cc(-c3cc4c(cc3C(=O)N3Cc5ccccc5C[C@H]3CN3CCCCC3)CN(C(=O)Cc3ccc(O[C@H]5CCN(CCF)C5)cc3F)CC4)n(C)c2C)c2ccc(O)cc2)cc(C#N)n1C [Example 89, N-(5-cyano-1,2-dimethylpyrrol-3-yl)-5-{2-[2-(2-fluoro-4-{[(3S)-1-(2-fluoroethyl)pyrrolidin-3-yl]oxy}phenyl)acetyl]-7-{[(3S)-3-(piperidin-1-ylmethyl)-3,4-dihydro-1H-isoquinolin-2-yl]carbonyl}-3,4-dihydro-1H-isoquinolin-6-yl}-N-(4-hydroxyphenyl)-1,2-dimethylpyrrole-3-carboxamide] | 0.0069 | 5.17 | 0.0358 |
| 0.06 | 0.4 | 5.6 | 0.2 | 0.2 | 0.2 | 2.4 | 37.5 | Cc1c(N(C(=O)c2cc(-c3cc4c(cc3C(=O)N3Cc5ccccc5C[C@H]3CN3CCCCCC3)CN(C(=O)Cc3ccc(OCCN5CCOCC5)cc3F)CC4)n(C)c2C)c2ccc(O)cc2)cc(C#N)n1C [Example 96, 5-{7-[(3S)-3-[(azepan-1-yl)methyl]-1,2,3,4-tetrahydroisoquinoline-2-carbonyl]-2-(2-{2-fluoro-4-[2-(morpholin-4-yl)ethoxy]phenyl}acetyl)-1,2,3,4-tetrahydroisoquinolin-6-yl}-N-(5-cyano-1,2-dimethyl-1H-pyrrol-3-yl)-N-(4-hydroxyphenyl)-1,2-dimethyl-1H-pyrrole-3-carboxamide] | 0.0056 | 5.15 | 0.0291 |
| 0.05 | 0.2 | 4.3 | 0.11 | 0.22 | 0.12 | 1.6 | 32.7 | Cc1c(N(C(=O)c2cc(-c3cc4c(cc3C(=O)N3Cc5ccccc5C[C@H]3CN3CCCCC3)CN(C(=O)Cc3ccc(OCCN(C)C5COC5)cc3F)CC4)n(C)c2C)c2ccc(O)cc2)cc(C#N)n1C [Example 105, N-(5-cyano-1,2-dimethyl-1H-pyrrol-3-yl)-5-{2-[2-(2-fluoro-4-{2-[methyl(oxetan-3-yl)amino]ethoxy}phenyl)acetyl]-7-[(3S)-3-[(piperidin-1-yl)methyl]-1,2,3,4-tetrahydroisoquinoline-2-carbonyl]-1,2,3,4-tetrahydroisoquinolin-6-yl}-N-(4-hydroxyphenyl)-1,2-dimethyl-1H-pyrrole-3-carboxamide] | 0.0054 | 5.28 | 0.0285 |
